Reference: US12286437B2, “Cardiac sarcomere inhibitors” (Cytokinetics, Inc., priority 2021, dated 2025)

How the values were obtained:
[1] = Rat single dose pharmacokinetics; type: in vivo, Sprague Dawley rats; details: male, Sprague Dawley, plasma, IV; for Vd: read-out: Vss
Description: Male Sprague Dawley rats were obtained from Zhejiang Vital River Laboratory Animal Technology Co., Ltd. The animals in IV group had free access to water and food. The animals in PO group were fasted overnight before dosing and provided with food 2 hours post dosing. The IV dose solution was prepared in 10% DMA/50% PG/40% HPβCD solution (40% w/v aqueous HPβCD) at a concentration of 1 mg/mL. The oral dosing suspension was prepared by suspending Test Article in 0.5% HPMC/0.1% Tween 80 in water at a concentration 0.2 mg/mL. Concentrations of IV and PO doses were measured at the end of the study. Pharmacokinetic parameters were calculated using the nominal dose values if the measured values were within 20% of the nominal values. Three rats were dosed IV via a bolus injection via caudal vein. Three rats per dose group were dosed by oral gavage. Blood samples were collected from the jugular vein cannula at predose, 5 (IV only), 15, 30 minutes, and 1, 2, 4, 6, and 24 hours post-dose. Blood volumes were replaced with an equal amount of sterile 0.9% saline. Blood samples were centrifuged and the collected plasma was stored at −80° C. for subsequent analysis. Plasma samples were analyzed for Test Article concentrations using a LC/MS/MS method. Briefly, a 50 μL aliquot of each plasma sample was mixed with 100 μL of acetonitrile that contained an internal standard. The mixture was vortexed and centrifuged. Ten (10) […] of the resulting solution was injected onto a reverse-phase C18 column and the resultant peaks detected on a LC/MS/MS equipped with a turbo ionspray ionization source. Sample concentrations below the limit of quantification (BLQ) were treated as zero for pharmacokinetic calculations. Pharmacokinetic parameters were estimated from individual animals using noncompartmental analysis of the concentration-time data (Phoenix WinNonLin software, version 64; Pharsight, Mountain View, CA). The elimination rate constant (k) was calculated as the absolute value of the slope of the linear regression of logarithm (log) of the concentration versus time for the last three data points of the concentration-time profiles. Apparent elimination half-life (t1/2) values were calculated as ln(2)/k. Area under the concentration-time curve (AUC) values were estimated using linear trapezoidal method. AUCt values were calculated from the dosing time to the last measurable concentration. AUC∞ values were calculated as the sum of the corresponding AUCt and the ratio of the last detectable concentration divided by k (AUCt-∞). Plasma clearance (CL) was calculated from Dose/AUC∞. Mean resident time (MRT) was estimated by moment analysis. Volume of distribution at steady state (Vss) was calculated from MRT∞×CL. Maximum concentration (Cmax) and time to reach Cmax (tmax) were recorded as observed. Bioavailability was calculated from the ratio of dose normalized AUC∞,po of individual rats/mean dAUC∞,iv×100% where dAUC was the dose normalized AUC value. Compounds tested were prepared in accordance with the synthetic procedures described herein.

[2] = Dog cassette dosing pharmacokinetics; type: in vivo, beagle dogs; details: male, beagle, plasma, IV; for Vd: read-out: Vss; for half-life: read-out: t½ (converted)
Description: Non-naïve male beagle dogs (8 months to 3 years of age, body weight 8-14 kg) sourced from Jiangsu Johnsen Bioresource CO. and/or Beijing Rixinkeji CO., LTD and/or Beijing Marshall Biotechnology CO., LTD were used in this study. All animals for IV administration had free access to food and water. The IV dose solution was prepared in 10% DMA/50% PG/40% HPβCD solution (40% w/v aqueous HPβCD) at a concentration of 0.2 mg/mL. Concentrations of IV dose was measured at the end of the study. PK parameters were calculated using the nominal dose values if the measured values were within 20% of the nominal values. Blood samples were collected by venipuncture of peripheral veins except the dosing vein at pre-dose, 5 15, 30 min, 1, 2, 4, 6, 8 and 24 h post-dose. Blood samples were centrifuged and resultant plasma was frozen for bioanalysis. Plasma samples were stored at −80° C. before analysis. Plasma samples were analyzed for compound concentrations using the LC/MS/MS method. Briefly, a 50 μL aliquot of each plasma sample was mixed with 100 μL of acetonitrile that contained an internal standard. The mixture was vortexed and centrifuged. Ten (10) μL of the resulting solution was injected onto a reverse-phase C18 column and the resultant peaks detected on a LC/MS/MS equipped with a turbo ionspray ionization source. Sample concentrations below the limit of quantification (BLQ) were treated as zero for PK calculations. PK parameters were estimated from individual animals using noncompartmental analysis of the concentration-time data (Phoenix WinNonLin software, version 64; Pharsight, Mountain View, CA). The elimination rate constant (k) was calculated as the absolute value of the slope of the linear regression of logarithm (log) of the concentration versus time for the last three data points of the concentration-time profiles. Apparent elimination half-life (t1/2) values were calculated as ln(2)/k. Area under the concentration-time curve (AUC) values were estimated using linear trapezoidal method. AUCt values were calculated from the dosing time to the last measurable concentration. AUC∞ values were calculated as the sum of the corresponding AUCt and the ratio of the last detectable concentration divided by k. Plasma clearance (CL) was calculated from Dose/AUC∞. Mean resident time extrapolated to infinity (MRT∞) was estimated by moment analysis. Vss was calculated from MRT∞×CL. Maximum concentration (Cmax) and time to reach Cmax (tmax) were recorded as observed. As this was a cross-over study, bioavailability was calculated dAUC∞,po/dAUC∞,iv×100% where dAUC was the dose normalized AUC value from the same animal given IV and PO dose. Data for compounds tested are provided in Table G. Compounds tested were prepared in accordance with the synthetic procedures described herein.

CYP2D6 = molecular target: T1, CYP2D6 (Homo sapiens, UniProt P10635); assay: Time-dependent inhibition of CYP2D6 in human liver microsomes; type: in vitro ADME; details: for (% Activity NADPH T0)/(% Activity NADPH T30): fold change; for activity at 30 min, 25 µM / activity at 0 min, 25 µM / activity at 30 min, 50 µM / activity at 0 min, 50 µM: pooled human liver microsomes, human liver microsomes; for activity at 30 min, 25 µM / activity at 30 min, 50 µM: after 30 minutes incubation, read-out: % Activity NADPH T30; for activity at 0 min, 25 µM / activity at 0 min, 50 µM: time zero, read-out: % Activity NADPH T0
T1 construct: Pooled human microsomes and selective CYP probe substrates were used; from tissue; host or cells: pooled human liver microsomes
T1 sequence (P10635 whole entry): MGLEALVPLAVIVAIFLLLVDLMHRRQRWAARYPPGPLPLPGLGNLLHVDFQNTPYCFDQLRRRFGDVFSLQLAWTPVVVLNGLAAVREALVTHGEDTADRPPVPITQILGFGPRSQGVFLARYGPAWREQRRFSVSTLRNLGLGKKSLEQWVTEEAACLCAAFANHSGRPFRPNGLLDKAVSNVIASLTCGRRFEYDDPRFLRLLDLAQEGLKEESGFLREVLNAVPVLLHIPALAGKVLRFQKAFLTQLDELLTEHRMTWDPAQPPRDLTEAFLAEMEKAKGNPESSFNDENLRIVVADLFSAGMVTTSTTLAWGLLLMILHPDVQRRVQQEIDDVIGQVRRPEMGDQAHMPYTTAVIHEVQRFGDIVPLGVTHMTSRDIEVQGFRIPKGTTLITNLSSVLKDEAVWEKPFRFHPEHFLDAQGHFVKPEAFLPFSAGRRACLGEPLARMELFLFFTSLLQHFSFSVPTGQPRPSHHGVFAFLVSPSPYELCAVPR
Description: An assessment of the time-dependent Inhibitory Potential of the test compounds against Principal Human Cytochrome P450 Isozymes using Human Liver Microsomes was also carried out using standard methods (Grimm et al, Drug Metab. Dispos., July; 37(7):1355-70. doi: 10.1124/dmd.109.026716, 2009). Pooled human microsomes and selective CYP probe substrates were used for in vitro assessment of test compounds at 25 and 50 μM as time-dependent inhibitors of […] human hepatic cytochrome P450 isozymes (CYP1A2, 2B6, 2C9, 2C19, 2D6, and 3A4). LC-MS/MS was used to quantify metabolite formation. The inhibition of each P450 enzyme in human liver microsomes was measured as the percentage decrease in the activity of marker metabolite formation as measured by LC-MS/MS compared to non-inhibited controls (=100% activity) at time zero and after 30 minutes incubation. The occurrence of any time dependent inhibition was then expressed as the fold change in enzyme activity at time zero relative to the activity after 30 minutes incubation.

clearance [1] | half-life [1] | Vd [1] | clearance [2] | Vd [2] | half-life [2] | (% Activity NADPH T0)/(% Activity NADPH T30) (CYP2D6; CYP2D6, 25 μM) | (% Activity NADPH T0)/(% Activity NADPH T30) (CYP2D6; CYP2D6, 50 μM) | activity at 30 min, 25 µM (CYP2D6; CYP2D6, 25 μM) | activity at 0 min, 25 µM (CYP2D6; CYP2D6, 25 μM) | activity at 30 min, 50 µM (CYP2D6; CYP2D6, 50 μM) | activity at 0 min, 50 µM (CYP2D6; CYP2D6, 50 μM) | (% Activity NADPH T0)/(% Activity NADPH T30) (CYP2D6; CYP2D6, 50 μM, listed as compound 6) | (% Activity NADPH T0)/(% Activity NADPH T30) (CYP2D6; CYP2D6, 50 μM, listed as compound 4) | Compound
61.9 mL/min/kg | 2.1 h | 12.6 L/kg | 9.22 mL/min/kg | 6.33 L/kg | 10.9 h | 0.9 | 0.9 | 88% | 80% | 95% | 87% |  |  | C[C@H]1CC[C@H](N2CC(=O)N(Cc3ccc(F)c(Cl)c3)C3(CN(C(N)=O)C3)C2=O)CC1 [Compound 7, 5-(3-chloro-4-fluorobenzyl)-8-((1r,4r)-4-methylcyclohexyl)-6,9-dioxo-2,5,8-triazaspiro[3.5]nonane-2-carboxamide]
79.9 mL/min/kg | 1.2 h | 5.22 L/kg | 15.6 mL/min/kg | 6.26 L/kg | 5.66 h | 0.9 | 1.0 | 98% | 92% | 91% | 87% |  |  | CC(C)N1CC(=O)N(Cc2ccc(Cl)c(F)c2)C2(CN(c3cccnn3)C2)C1=O [Compound 8, 5-(4-chloro-3-fluorobenzyl)-8-isopropyl-2-(pyridazin-3-yl)-2,5,8-triazaspiro[3.5]nonane-6,9-dione]
63.6 mL/min/kg | 2.15 h | 9.48 L/kg | 7.07 mL/min/kg | 4.29 L/kg | 9.08 h | 1.0 | 1.1 | 105% | 103% | 91% | 104% |  |  | C[C@H]1CC[C@H](N2CC(=O)N(Cc3ccc(Cl)cc3)C3(CN(C(N)=O)C3)C2=O)CC1 [Compound 18, 5-(4-chlorobenzyl)-8-((1r,4r)-4-methylcyclohexyl)-6,9-dioxo-2,5,8-triazaspiro[3.5]nonane-2-carboxamide]
38.9 mL/min/kg | 0.95 h | 2.17 L/kg | 11.5 mL/min/kg | 3.72 L/kg | 4.16 h | 1.0 | 1.4 | 100% | 96% | 72% | 98% |  |  | CC(C)N1CC(=O)N(Cc2ccc(C(F)(F)F)cc2)C2(CN(c3cccnn3)C2)C1=O [Compound 13, 8-isopropyl-2-(pyridazin-3-yl)-5-(4-(trifluoromethyl)benzyl)-2,5,8-triazaspiro[3.5]nonane-6,9-dione]

More lines, now with the values behind:

Compound | clearance [1] | half-life [1] | Vd [1] | clearance [2] | Vd [2] | half-life [2] | (% Activity NADPH T0)/(% Activity NADPH T30) (CYP2D6; CYP2D6, 25 μM) | (% Activity NADPH T0)/(% Activity NADPH T30) (CYP2D6; CYP2D6, 50 μM) | activity at 30 min, 25 µM (CYP2D6; CYP2D6, 25 μM) | activity at 0 min, 25 µM (CYP2D6; CYP2D6, 25 μM) | activity at 30 min, 50 µM (CYP2D6; CYP2D6, 50 μM) | activity at 0 min, 50 µM (CYP2D6; CYP2D6, 50 μM) | (% Activity NADPH T0)/(% Activity NADPH T30) (CYP2D6; CYP2D6, 50 μM, listed as compound 6) | (% Activity NADPH T0)/(% Activity NADPH T30) (CYP2D6; CYP2D6, 50 μM, listed as compound 4)
C[C@H]1CC[C@H](N2CC(=O)N(Cc3ccc(F)c(F)c3)C3(CN(C(N)=O)C3)C2=O)CC1 [Compound 5, 5-(3,4-difluorobenzyl)-8-((1r,4r)-4-methylcyclohexyl)-6,9-dioxo-2,5,8-triazaspiro[3.5]nonane-2-carboxamide] | 71.1 mL/min/kg | 3.04 h | 13.7 L/kg | 9.26 mL/min/kg | 6.17 L/kg | 9.86 h | 1.1 | 1.1 | 89% | 98% | 84% | 94% |  | 
Cc1cc(CN2C(=O)CN([C@H]3CC[C@H](C)CC3)C(=O)C23CN(C(N)=O)C3)ccc1F [Compound 6, 5-(4-fluoro-3-methylbenzyl)-8-((1r,4r)-4-methylcyclohexyl)-6,9-dioxo-2,5,8-triazaspiro[3.5]nonane-2-carboxamide] | 76.6 mL/min/kg | 2 h | 10.1 L/kg | 9.08 mL/min/kg | 3.98 L/kg | 7.11 h | 1.3 | 1.2 | 87% | 112% | 92% | 107% | no change in activity | 
C[C@H]1CC[C@H](N2CC(=O)N(Cc3ccc(F)c(F)c3)C3(CN(C=O)C3)C2=O)CC1 [Compound 4, 5-(3,4-difluorobenzyl)-8-((1r,4r)-4-methylcyclohexyl)-6,9-dioxo-2,5,8-triazaspiro[3.5]nonane-2-carbaldehyde] |  |  |  |  |  |  | 1.3 | 1.1 |  |  |  |  |  | no change in activity
